Literature values in patent US11612656B2, “Use of small molecule based on indotricarbocyanine structure in preparation of medicines for tumor photothermal therapy” (Nanjing Nuoyuan Medical Devices Co., LTD., priority 2021, dated 2023).

Details: free ICG 20 μg/ml, light irradiation at power density 1 W/cm^2

## CC1(C)C(/C=C/C=C/C=C/C=C2/N(CCCCS(=O)(=O)O)c3ccc4ccccc4c3C2(C)C)=[N+](CCCCS(=O)(=O)O)c2ccc3ccccc3c21.[Na+] [ICG, Indocyanine green]
  photothermal conversion efficiency (PTCE): 15.1%
